Values joined by “and” are separate entries in the source; they are usually repeats but may differ in a detail not shown here. Equal entries are not always repeated.
How the values were obtained:
[1] = In vitro incubation in chicken liver microsomes with or without NADPH, LC/ESI-HR-MS analysis; assay type: in vitro ADME; details: for Remaining Content −Cofactor, Mean ± SD (%) / Remaining Content (%) −Cofactor, 1 / Remaining Content (%) −Cofactor, 2 / Remaining Content (%) −Cofactor, 3 / Remaining Content +Cofactor, Mean ± SD (%) / Remaining Content (%) +Cofactor, 1 / Remaining Content (%) +Cofactor, 2 / Remaining Content (%) +Cofactor, 3: chicken liver microsomes (CLM), 60 min vs 0 min incubation; for Remaining Content −Cofactor, Mean ± SD (%) / Remaining Content (%) −Cofactor, 1 / Remaining Content (%) −Cofactor, 2 / Remaining Content (%) −Cofactor, 3: no NADPH (control); for Remaining Content −Cofactor, Mean ± SD (%) / Remaining Content +Cofactor, Mean ± SD (%): mean of 3; for Remaining Content (%) −Cofactor, 1 / Remaining Content (%) +Cofactor, 1: replicate 1; for Remaining Content (%) −Cofactor, 2 / Remaining Content (%) +Cofactor, 2: replicate 2; for Remaining Content (%) −Cofactor, 3 / Remaining Content (%) +Cofactor, 3: replicate 3; for Remaining Content +Cofactor, Mean ± SD (%) / Remaining Content (%) +Cofactor, 1 / Remaining Content (%) +Cofactor, 2 / Remaining Content (%) +Cofactor, 3: with NADPH cofactor; for Remaining Content (%) +Cofactor, 2: tested at 1 µM; for Remaining Content (%) +Cofactor, 3: tested at 1 µM; for Remaining Content (%) −Cofactor, 2: tested at 1 µM; for Remaining Content (%) −Cofactor, 3: tested at 1 µM; for Remaining Content +Cofactor, Mean ± SD (%): tested at 1 µM; for Remaining Content −Cofactor, Mean ± SD (%): tested at 1 µM
Procedure: The incubation system (100 μL) contained 65 μL of potassium phosphate buffer (0.1 M, pH 7.4), 20 μL of chicken liver microsomes (5 mg/mL), 5 μL of a compound (20 μM) and […]. After a 5 min preincubation period at 37 °C, the reaction was started by introducing 10 μL of NADPH (10 mM) as the cofactor solution. The final study groups were divided into cofactor and no cofactor (control) groups. After preincubation for 5 min, 10 μL of potassium phosphate buffer (0.1 M, pH 7.4) was added to the control group. […] For 0 min samples, the reaction was quenched immediately after the 5-min preincubation, followed by the addition of 10 μL of NADPH (10 mM) and 10 μL of potassium phosphate buffer (0.1 M, pH 7.4) to the cofactor and control groups, respectively. Following brief sonication (5 min) and vortexing (5 min), the mixtures were centrifuged for 30 min at 3000 rpm and 4 °C. The supernatant was transferred to an Agilent 96-well plate and then analysed on an Agilent 6530 Q-TOF LC-MS/MS instrument.
Liquid chromatographic separation and mass spectrometric detection were performed on an Agilent 1200 series HPLC system and an Agilent 6530 Q-TOF LC-MS/MS system equipped with a dual AJS ESI ion source. Chromatographic separation was performed on an Agilent Eclipse Plus C18 column (100 mm × 2.1 mm; i.d. 3.5 µm) by gradient elution with a mobile phase consisting of 0.1 vol.% formic acid in water (A) and ACN (B) at 40 °C: 0–2 min, 5 vol.% B; 2–3 min, 50 vol.% B; 3–4 min, 75 vol.% B; and 4-5 min, 5 vol.% B. The injection volume was 5 μL with a flow rate of 0.4 mL/min. Before sample injection, the instrument was equilibrated under the initial gradient conditions (A:B = 95:5, v/v) and the above-mentioned column temperature and flow rate conditions. HR-MS detection was carried out in positive ionization mode with the following ion source parameters: capillary voltage, 4000 V; drying gas, 12 L/min and 325 °C; nebulizer gas, 35 psi; and sheath gas, 10 L/min and 350 °C. Mass spectra were acquired in positive ion auto MS/MS mode (F, 100 V; CE, 0 eV) with a full scan range of m/z (100–1000) and a mass scan rate of 5 spectra/s. The mass spectrometer was run in an extended dynamic range mode with a mass range of m/z 50–3200. The mass resolving power was greater than 12,000 FWHM at m/z 1552.
The data were analysed using Agilent MassHunter Quantitative Analysis software (version B.05.00) and Agilent MassHunter Metabolite ID software (version B.04.00) (Santa Clara, CA, USA). The remaining content was evaluated by dividing the ratio of the response of the target compound to the response of the IS at 60 min of incubation by the ratio of the response of the target compound to the response of the IS at 0 min of incubation in the cofactor group or control group.

P-GP = test system: P-GP; parameters: method as in PMID 1732074, PMID 1976065; details: cited from earlier work
CYP3A4 = test system: CYP3A4; parameters: method as in PMID 1732074, PMID 1976065; details: midazolam as the CYP3A4 substrate; cited from earlier work

Compound: O=C1CC2(CCCC2)CC(=O)N1CCCCN1CCN(c2ncccn2)CC1 [BUS, buspirone]
- Remaining Content −Cofactor, Mean ± SD (%) [1]: 81.5 ± 13.8%
- Remaining Content (%) −Cofactor, 1 [1]: 87.5%
- Remaining Content (%) −Cofactor, 2 [1]: 65.7%
- Remaining Content (%) −Cofactor, 3 [1]: 91.2%
- Remaining Content +Cofactor, Mean ± SD (%) [1]: 48.9% and 48.9 ± 4.5%
- Remaining Content (%) +Cofactor, 1 [1]: 46.4%
- Remaining Content (%) +Cofactor, 2 [1]: 46.2%
- Remaining Content (%) +Cofactor, 3 [1]: 54.1%

Compound: CC[C@H]1OC(=O)[C@H](C)[C@@H](O[C@H]2C[C@@](C)(OC)[C@@H](O)[C@H](C)O2)[C@H](C)[C@@H](O[C@@H]2O[C@H](C)C[C@H](N(C)C)[C@H]2O)[C@](C)(OC)C[C@@H](C)C(=O)[C@H](C)[C@@H](O)[C@]1(C)O [CLA, clarithromycin]
- Inhibition of the activity of the drug transporter P-GP (P-GP): do not inhibit
- Remaining Content −Cofactor, Mean ± SD (%) [1]: 86.6 ± 12.3%
- Remaining Content (%) −Cofactor, 1 [1]: 100.7%
- Remaining Content (%) −Cofactor, 2 [1]: 78.7%
- Remaining Content (%) −Cofactor, 3 [1]: 80.3%
- Remaining Content +Cofactor, Mean ± SD (%) [1]: 89.8% and 89.8 ± 21.5%
- Remaining Content (%) +Cofactor, 1 [1]: 77.5%
- Remaining Content (%) +Cofactor, 2 [1]: 77.3%
- Remaining Content (%) +Cofactor, 3 [1]: 114.7%
- Formation of N-desmethyl metabolite ([1]; chicken liver microsomes, incubation for 60 min with NADPH cofactor, extracted ion chromatograms): cannot produce N-desmethyl-clarithromycin
- Strength of drug interaction (CYP3A4): strong

Compound: CC[C@H]1OC(=O)[C@H](C)[C@@H](O[C@H]2C[C@@](C)(OC)[C@@H](O)[C@H](C)O2)[C@H](C)[C@@H](O[C@@H]2O[C@H](C)C[C@H](N(C)C)[C@H]2O)[C@](C)(O)C[C@@H](C)C(=O)[C@H](C)[C@@H](O)[C@]1(C)O [ERY, erythromycin A]
- Remaining Content −Cofactor, Mean ± SD (%) [1]: 94.8 ± 6.3%
- Remaining Content (%) −Cofactor, 1 [1]: 99.0%
- Remaining Content (%) −Cofactor, 2 [1]: 97.9%
- Remaining Content (%) −Cofactor, 3 [1]: 87.6%
- Remaining Content +Cofactor, Mean ± SD (%) [1]: 86.6% and 86.6 ± 6.5%
- Remaining Content (%) +Cofactor, 1 [1]: 82.6%
- Remaining Content (%) +Cofactor, 2 [1]: 83.1%
- Remaining Content (%) +Cofactor, 3 [1]: 94.1%
